# Publication PMC7316778 (Nature Communications, 2020)
# Like-named read-outs stand apart in the source and are kept apart here.
# Key:
# Test in all cases: SelectScreen kinase assay
# [1] = molecular target: TLK2 (Homo sapiens, UniProt Q86UE8)
# Description: (§1) Selectivity profiling assays were performed by the Invitrogen SelectScreen™ Services. […] The concentration of ATP was selected to be equal to the KM, unless indicated otherwise.
# [2] = molecular target: T1, TGFBR1 (ALK5) (Homo sapiens, UniProt P36897); conditions: for Inhibition at 1 µM (%): LanthaScreen Binding
# T1 sequence (P36897 34-503): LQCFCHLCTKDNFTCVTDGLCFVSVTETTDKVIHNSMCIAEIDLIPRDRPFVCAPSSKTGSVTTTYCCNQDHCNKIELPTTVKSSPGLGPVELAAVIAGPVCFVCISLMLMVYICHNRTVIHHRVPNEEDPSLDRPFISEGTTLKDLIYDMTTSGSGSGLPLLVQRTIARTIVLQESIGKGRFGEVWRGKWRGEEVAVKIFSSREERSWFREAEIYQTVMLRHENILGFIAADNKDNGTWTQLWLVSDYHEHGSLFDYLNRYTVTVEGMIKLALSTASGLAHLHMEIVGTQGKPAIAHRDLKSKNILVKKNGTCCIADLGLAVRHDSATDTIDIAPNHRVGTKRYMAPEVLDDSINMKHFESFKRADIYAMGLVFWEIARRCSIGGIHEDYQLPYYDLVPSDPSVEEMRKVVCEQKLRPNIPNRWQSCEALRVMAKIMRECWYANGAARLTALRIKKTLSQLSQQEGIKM
# Description: as §1
# [3] = molecular target: GSK3A (GSK3 alpha) (Homo sapiens, UniProt P49840)
# Description: as §1
# [4] = molecular target: HIPK3 (YAK1) (Homo sapiens, UniProt Q9H422)
# Description: as §1
# [5] = molecular target: CAMK4 (CaMKIV) (Homo sapiens, UniProt Q16566)
# Description: as §1
# [6] = molecular target: ACVR2B (Homo sapiens, UniProt Q13705)
# Description: as §1
# [7] = molecular target: MAP3K3 (MEKK3) (Homo sapiens, UniProt Q99759)
# Description: as §1
# [8] = molecular target: CDC42 BPG (MRCKG) (Homo sapiens, UniProt Q6DT37)
# Description: as §1
# [9] = molecular target: STK22D (TSSK1) (Homo sapiens, UniProt Q9BXA7); conditions: 1 h, 1 μM WEL028, 1 h preincubation
# Description: as §1
# [10] = molecular target: LRRK2 FL (Homo sapiens, UniProt Q5S007)
# Description: as §1
# [11] = molecular target: T2, MUSK (Homo sapiens, UniProt O15146)
# T2 sequence (O15146 24-869): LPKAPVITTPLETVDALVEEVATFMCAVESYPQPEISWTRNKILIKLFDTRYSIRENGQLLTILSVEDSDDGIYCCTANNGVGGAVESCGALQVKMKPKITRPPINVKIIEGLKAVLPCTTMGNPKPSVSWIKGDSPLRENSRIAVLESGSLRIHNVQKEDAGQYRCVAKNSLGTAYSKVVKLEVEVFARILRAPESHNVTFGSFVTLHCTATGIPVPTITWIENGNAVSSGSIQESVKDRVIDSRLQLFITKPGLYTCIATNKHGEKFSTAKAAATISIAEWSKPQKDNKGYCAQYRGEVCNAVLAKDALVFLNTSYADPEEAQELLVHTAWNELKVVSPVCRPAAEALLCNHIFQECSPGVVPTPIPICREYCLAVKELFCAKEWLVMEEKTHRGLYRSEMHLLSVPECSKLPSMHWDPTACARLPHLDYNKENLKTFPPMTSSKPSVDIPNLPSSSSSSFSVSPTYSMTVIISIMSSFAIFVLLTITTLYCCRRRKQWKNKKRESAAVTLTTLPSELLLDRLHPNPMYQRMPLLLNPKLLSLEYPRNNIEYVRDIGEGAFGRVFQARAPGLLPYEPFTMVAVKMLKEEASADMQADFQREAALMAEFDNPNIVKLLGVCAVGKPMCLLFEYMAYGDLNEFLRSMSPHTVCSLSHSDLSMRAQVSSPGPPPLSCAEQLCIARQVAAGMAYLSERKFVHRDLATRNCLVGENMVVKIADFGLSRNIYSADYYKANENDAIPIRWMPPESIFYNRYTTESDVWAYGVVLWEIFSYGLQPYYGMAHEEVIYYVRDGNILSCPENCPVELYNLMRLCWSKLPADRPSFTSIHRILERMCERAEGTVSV
# Description: as §1
# [12] = molecular target: PTK2 (FAK) (Homo sapiens, UniProt Q05397)
# Description: as §1
# [13] = molecular target: MAP3K11 (MLK3) (Homo sapiens, UniProt Q16584)
# Description: as §1
# [14] = molecular target: STK38L (NDR2) (Homo sapiens, UniProt Q9Y2H1); conditions: for Inhibition at 1 µM (%): LanthaScreen Binding
# Description: as §1
# [15] = 1 h, 1 μM WEL028, 1 h preincubation
# LRRK2 FL, sequence (Q5S007 whole entry): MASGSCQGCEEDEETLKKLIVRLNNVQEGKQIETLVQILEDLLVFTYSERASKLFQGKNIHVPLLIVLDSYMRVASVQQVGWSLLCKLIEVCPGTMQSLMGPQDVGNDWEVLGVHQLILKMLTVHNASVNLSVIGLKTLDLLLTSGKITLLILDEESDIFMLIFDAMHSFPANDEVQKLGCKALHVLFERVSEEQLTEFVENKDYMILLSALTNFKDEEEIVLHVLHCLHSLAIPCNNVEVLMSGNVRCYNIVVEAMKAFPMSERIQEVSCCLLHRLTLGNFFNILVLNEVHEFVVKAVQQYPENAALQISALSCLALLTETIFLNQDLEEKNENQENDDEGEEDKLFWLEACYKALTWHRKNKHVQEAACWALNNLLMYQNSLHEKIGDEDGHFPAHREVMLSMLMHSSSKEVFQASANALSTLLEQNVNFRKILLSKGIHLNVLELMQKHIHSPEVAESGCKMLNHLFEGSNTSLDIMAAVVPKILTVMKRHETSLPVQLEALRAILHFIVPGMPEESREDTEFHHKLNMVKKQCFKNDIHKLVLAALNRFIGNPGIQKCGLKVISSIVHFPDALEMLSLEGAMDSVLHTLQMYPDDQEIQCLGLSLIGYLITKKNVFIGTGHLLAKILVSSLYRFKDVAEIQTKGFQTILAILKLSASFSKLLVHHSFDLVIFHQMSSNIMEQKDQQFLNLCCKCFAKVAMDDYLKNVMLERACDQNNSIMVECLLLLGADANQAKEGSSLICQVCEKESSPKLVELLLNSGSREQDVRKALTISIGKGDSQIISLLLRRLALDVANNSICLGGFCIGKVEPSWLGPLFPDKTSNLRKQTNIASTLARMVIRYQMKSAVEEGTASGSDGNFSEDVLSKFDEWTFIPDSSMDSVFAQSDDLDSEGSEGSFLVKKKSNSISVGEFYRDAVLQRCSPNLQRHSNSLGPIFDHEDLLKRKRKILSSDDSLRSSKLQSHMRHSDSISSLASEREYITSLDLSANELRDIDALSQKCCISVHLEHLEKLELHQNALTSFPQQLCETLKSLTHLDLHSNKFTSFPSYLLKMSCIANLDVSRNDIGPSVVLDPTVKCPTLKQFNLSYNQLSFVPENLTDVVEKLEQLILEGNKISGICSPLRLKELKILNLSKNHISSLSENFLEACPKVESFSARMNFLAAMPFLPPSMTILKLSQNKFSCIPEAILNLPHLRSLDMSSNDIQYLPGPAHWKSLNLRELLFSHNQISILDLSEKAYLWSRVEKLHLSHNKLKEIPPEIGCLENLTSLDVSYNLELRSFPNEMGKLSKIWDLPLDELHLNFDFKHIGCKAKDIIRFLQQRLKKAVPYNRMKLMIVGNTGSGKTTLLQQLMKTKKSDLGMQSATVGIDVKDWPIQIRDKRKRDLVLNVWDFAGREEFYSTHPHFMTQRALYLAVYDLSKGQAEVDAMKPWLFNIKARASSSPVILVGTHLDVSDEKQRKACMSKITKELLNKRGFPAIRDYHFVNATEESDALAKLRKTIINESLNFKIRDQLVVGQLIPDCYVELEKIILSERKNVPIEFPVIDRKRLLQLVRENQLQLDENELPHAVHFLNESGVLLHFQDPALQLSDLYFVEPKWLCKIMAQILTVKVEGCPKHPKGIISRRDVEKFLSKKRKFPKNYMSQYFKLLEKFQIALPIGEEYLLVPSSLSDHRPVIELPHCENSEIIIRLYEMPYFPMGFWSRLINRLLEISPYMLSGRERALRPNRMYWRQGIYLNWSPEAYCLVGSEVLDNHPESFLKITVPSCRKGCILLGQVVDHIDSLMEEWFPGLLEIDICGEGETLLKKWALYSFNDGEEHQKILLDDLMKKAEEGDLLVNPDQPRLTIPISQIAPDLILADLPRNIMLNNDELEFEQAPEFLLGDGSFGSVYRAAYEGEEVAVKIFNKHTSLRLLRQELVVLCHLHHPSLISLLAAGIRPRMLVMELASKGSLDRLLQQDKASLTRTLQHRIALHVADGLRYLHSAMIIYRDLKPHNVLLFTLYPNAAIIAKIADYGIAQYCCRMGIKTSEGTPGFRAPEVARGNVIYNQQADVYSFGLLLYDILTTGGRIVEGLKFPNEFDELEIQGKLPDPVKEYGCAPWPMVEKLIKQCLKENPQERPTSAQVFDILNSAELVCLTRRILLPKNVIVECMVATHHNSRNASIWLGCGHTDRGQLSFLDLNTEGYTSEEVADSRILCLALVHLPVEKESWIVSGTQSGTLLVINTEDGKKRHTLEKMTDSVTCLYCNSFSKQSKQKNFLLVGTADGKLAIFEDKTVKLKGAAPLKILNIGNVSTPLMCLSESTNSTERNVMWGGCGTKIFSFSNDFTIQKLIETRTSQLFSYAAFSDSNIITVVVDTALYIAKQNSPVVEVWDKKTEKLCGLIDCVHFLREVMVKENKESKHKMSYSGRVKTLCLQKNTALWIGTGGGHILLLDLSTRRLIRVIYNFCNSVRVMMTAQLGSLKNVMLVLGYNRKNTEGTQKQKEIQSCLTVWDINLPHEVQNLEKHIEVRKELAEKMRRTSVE
# GSK3A (GSK3 alpha), sequence (P49840 whole entry): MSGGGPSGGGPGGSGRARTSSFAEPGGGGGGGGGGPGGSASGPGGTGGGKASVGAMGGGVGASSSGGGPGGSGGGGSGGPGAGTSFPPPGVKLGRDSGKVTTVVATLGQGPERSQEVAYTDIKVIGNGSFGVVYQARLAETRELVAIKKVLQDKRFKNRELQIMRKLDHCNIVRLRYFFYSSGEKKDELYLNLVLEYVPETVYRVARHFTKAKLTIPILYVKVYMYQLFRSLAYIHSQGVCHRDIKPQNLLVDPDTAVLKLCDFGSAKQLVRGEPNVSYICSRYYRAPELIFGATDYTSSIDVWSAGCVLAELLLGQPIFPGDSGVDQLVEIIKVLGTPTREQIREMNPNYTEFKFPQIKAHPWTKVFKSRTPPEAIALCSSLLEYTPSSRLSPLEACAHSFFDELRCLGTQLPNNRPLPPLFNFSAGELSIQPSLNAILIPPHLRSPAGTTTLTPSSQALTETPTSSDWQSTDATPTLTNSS
# ACVR2B, sequence (Q13705 19-512): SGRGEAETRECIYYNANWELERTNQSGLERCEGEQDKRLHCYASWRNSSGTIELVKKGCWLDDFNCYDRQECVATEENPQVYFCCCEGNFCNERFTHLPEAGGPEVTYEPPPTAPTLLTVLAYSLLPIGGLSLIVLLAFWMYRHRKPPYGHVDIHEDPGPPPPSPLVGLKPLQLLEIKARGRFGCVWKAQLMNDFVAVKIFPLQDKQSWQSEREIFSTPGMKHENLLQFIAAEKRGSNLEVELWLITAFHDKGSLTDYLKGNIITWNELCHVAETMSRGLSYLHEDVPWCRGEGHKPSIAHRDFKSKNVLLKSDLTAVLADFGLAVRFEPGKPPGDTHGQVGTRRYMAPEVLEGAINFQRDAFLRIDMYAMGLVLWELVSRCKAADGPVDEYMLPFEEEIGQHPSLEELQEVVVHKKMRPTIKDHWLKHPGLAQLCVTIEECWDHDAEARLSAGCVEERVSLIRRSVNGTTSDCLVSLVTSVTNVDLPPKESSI
# STK38L (NDR2), sequence (Q9Y2H1 whole entry): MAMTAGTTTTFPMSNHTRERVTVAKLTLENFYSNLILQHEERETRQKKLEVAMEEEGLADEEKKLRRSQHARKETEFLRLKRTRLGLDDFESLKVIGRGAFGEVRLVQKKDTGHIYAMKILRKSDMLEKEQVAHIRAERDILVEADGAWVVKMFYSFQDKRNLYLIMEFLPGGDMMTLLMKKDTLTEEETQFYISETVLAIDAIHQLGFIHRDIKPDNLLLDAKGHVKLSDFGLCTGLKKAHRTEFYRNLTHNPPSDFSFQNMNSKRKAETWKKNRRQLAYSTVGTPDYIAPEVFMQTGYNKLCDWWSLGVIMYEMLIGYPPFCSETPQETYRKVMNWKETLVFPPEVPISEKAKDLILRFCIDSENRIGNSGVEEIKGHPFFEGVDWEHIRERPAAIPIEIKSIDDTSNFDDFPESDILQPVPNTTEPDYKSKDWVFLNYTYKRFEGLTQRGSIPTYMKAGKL
# PTK2 (FAK), sequence (Q05397 whole entry, species assumed): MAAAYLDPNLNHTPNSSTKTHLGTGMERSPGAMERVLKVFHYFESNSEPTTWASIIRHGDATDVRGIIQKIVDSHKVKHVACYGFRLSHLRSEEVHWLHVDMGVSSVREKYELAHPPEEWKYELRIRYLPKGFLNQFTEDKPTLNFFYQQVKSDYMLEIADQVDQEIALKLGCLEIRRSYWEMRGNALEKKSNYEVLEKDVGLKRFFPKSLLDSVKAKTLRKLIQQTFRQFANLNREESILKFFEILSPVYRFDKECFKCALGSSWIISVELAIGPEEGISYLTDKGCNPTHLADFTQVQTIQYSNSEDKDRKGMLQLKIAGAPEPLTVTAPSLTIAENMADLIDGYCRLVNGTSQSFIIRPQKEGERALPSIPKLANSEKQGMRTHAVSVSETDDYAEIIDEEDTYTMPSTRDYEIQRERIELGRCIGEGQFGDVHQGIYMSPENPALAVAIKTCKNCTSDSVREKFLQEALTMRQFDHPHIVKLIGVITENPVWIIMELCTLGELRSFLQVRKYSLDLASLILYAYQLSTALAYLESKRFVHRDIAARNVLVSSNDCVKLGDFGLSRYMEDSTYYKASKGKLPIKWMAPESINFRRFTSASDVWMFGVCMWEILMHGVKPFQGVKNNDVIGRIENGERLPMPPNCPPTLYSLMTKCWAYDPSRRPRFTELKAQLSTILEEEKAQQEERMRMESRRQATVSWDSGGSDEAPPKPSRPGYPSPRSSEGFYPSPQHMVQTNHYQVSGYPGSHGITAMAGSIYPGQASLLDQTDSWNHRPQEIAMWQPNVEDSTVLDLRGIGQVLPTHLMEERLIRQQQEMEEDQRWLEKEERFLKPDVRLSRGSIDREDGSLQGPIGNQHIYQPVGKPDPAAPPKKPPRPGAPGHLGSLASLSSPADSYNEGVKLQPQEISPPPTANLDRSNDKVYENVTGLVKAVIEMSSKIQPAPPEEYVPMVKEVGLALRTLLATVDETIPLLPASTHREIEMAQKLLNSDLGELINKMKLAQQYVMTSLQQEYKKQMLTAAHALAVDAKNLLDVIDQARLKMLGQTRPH
smiles,measurement,setting,value
C#CCOc1ccc(Nc2ncc(Cl)c(Nc3ccccc3NC(=O)C=C)n2)c(OC)c1 [Compound 6],Inhibition at 1 µM (%),"[1]; 1 µM, LanthaScreen Binding, listed as WEL028, 1 µM",1%
same,inhibition at 1 µM,[1]; [15],0%
same,Inhibition at 1 µM (%),[2],3%
same,Inhibition at 1 µM (%),"[2]; listed as WEL028, 1 µM",8%
same,inhibition at 1 µM,[2]; [15],6%
same,inhibition at 1 µM,[3]; [15],6%
same,Inhibition at 1 µM (%),"[3]; GSK3A (GSK3 alpha), 1 µM, ZLYTE, ATP Km app, listed as WEL028, 1 µM",7%
same,inhibition at 1 µM,"[3]; read-out: Inhibition at 1 µM (%), GSK3A (GSK3 alpha), 1 µM, ZLYTE, ATP Km app",5%
same,inhibition at 1 µM,[4]; [15],-3%
same,Inhibition at 1 µM (%),"[4]; HIPK3 (YAK1), 1 µM, ZLYTE, ATP Km app",-11%
same,inhibition at 1 µM,[5]; [15],-5%
same,Inhibition at 1 µM (%),"[5]; CAMK4 (CaMKIV), 1 µM, ZLYTE, ATP Km app",-15%
same,Inhibition (%),"[6]; 1 μM WEL028, 1 h preincubation",9%
same,Inhibition at 1 µM (%),"[6]; ACVR2B, 1 µM, LanthaScreen Binding, listed as WEL028, 1 µM",7%
same,inhibition at 1 µM,"[6]; read-out: Inhibition at 1 µM (%), ACVR2B, 1 µM, LanthaScreen Binding",12%
same,inhibition at 1 µM,[7]; [15],7%
same,inhibition at 1 µM,"[7]; read-out: Inhibition at 1 µM (%), MAP3K3 (MEKK3), 1 µM, LanthaScreen Binding",8%
same,inhibition at 1 µM,[8]; 1 h,-1%
same,inhibition at 1 µM,[8]; read-out: Inhibition at 1 µM (%),-1%
same,inhibition at 1 µM,[9],19%
same,inhibition at 1 µM,[10]; [15],97%
same,inhibition at 10 µM,"[10]; 1 h, log[inhibitor] (M) -5.00, Adapta, ATP Km app",100%
same,inhibition at 3.311 µM,"[10]; 1 h, log[inhibitor] (M) -5.48, Adapta, ATP Km app",100%
same,inhibition at 1.122 µM,"[10]; 1 h, log[inhibitor] (M) -5.95, Adapta, ATP Km app",100%
same,inhibition at 0.3715 µM,"[10]; 1 h, log[inhibitor] (M) -6.43, Adapta, ATP Km app",100%
same,inhibition at 0.123 µM,"[10]; 1 h, log[inhibitor] (M) -6.91, Adapta, ATP Km app",86%
same,inhibition at 0.04074 µM,"[10]; 1 h, log[inhibitor] (M) -7.39, Adapta, ATP Km app",39%
same,Inhibition at 1 µM (%),"[10]; LRRK2 FL, 1 µM, Adapta, ATP Km app, listed as WEL028, 1 µM",96%
same,inhibition at 1 µM,"[10]; read-out: Inhibition at 1 µM (%), LRRK2 FL, 1 µM, Adapta, ATP Km app",98%
same,inhibition at 1 µM,[11]; [15],26%
same,Inhibition at 1 µM (%),"[11]; MUSK, 1 µM, ZLYTE, ATP Km app, listed as WEL028, 1 µM",33%
same,inhibition at 1 µM,"[11]; read-out: Inhibition at 1 µM (%), MUSK, 1 µM, ZLYTE, ATP Km app",19%
same,IC50,[12],0.398 µM
same,Inhibition at 1 µM (%),"[12]; 1 µM, ZLYTE, ATP Km app, listed as WEL028, 1 µM",79%
same,inhibition at 10 µM,"[12]; 1 h, log[inhibitor] (M) -5.00, ZLYTE, ATP Km app",90%
same,inhibition at 3.31 µM,"[12]; 1 h, log[inhibitor] (M) -5.48, ZLYTE, ATP Km app",88%
same,inhibition at 1.12 µM,"[12]; 1 h, log[inhibitor] (M) -5.95, ZLYTE, ATP Km app",78%
same,inhibition at 0.372 µM,"[12]; 1 h, log[inhibitor] (M) -6.43, ZLYTE, ATP Km app",46%
same,inhibition at 0.123 µM,"[12]; 1 h, log[inhibitor] (M) -6.91, ZLYTE, ATP Km app",26%
same,inhibition at 0.0138 µM,"[12]; 1 h, log[inhibitor] (M) -7.86, ZLYTE, ATP Km app",4%
same,inhibition at 0.00151 µM,"[12]; 1 h, log[inhibitor] (M) -8.82, ZLYTE, ATP Km app",4%
same,Apparent fold selectivity,[12]; IC50 on that kinase divided by IC50 on FES^S700C,89 fold
same,inhibition at 1 µM,"[12]; read-out: Inhibition at 1 µM (%), 1 µM, ZLYTE, ATP Km app",77%
same,Inhibition at 1 µM (%),"[13]; MAP3K11 (MLK3), LanthaScreen Binding, listed as WEL028, 1 µM",6%
same,inhibition at 1 µM,"[13]; read-out: Inhibition at 1 µM (%), MAP3K11 (MLK3), LanthaScreen Binding",7%
same,Inhibition at 1 µM (%),[14],2%
same,Inhibition at 1 µM (%),"[14]; listed as WEL028, 1 µM",7%
same,inhibition at 1 µM,[14]; [15],5%
